26 molecules from US20240025906A1 (NEURON23, INC., priority 2022, published 2024) can be followed below.

The target of one test is T1, TYK2 JH2 (Homo sapiens, UniProt P29597).
T1 construct: purchased DiscoverX (KINOMEscan KdELECT service); host or cells: E. coli BL21-derived (T7 phage display) or HEK-293
The experiment in a line: TYK2 JH2 binding assay (KINOMEscan KdELECT competitive binding). Particulars: TYK2 JH2 domain, KINOMEscan KdELECT (Assay A); read-out: Biochemical TYK2_DiscoverX_JH2_BND_Kd. An outline of the steps:
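Beads carrying a biotinylated ligand were mixed with tagged JH2 kinase and compound (11 points, 3-fold steps, 0.9% DMSO) and shaken 1 h at room temperature. After washing, kinase was released with 0.5 μM untagged ligand over 30 min and measured by qPCR to derive Kd.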

Test [1] concerns JAK1/TYK2 pSTAT5 (Tyr694/699) in THP-1 cell line. The experiment in a line: IFNa-stimulated JAK1/TYK2 pSTAT5 (Tyr694/699) inhibition cellular assay, AlphaLISA. The test is classed as cell-based. The note with it: Homo sapiens; THP-1 cells, IFNa-stimulated, AlphaLISA (Assay B); read-out: Cellular_THP1_IFNa-pSTATS_TYK2. An outline of the steps:
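THP-1, 2e4 cells/well, HBSS; cpd 1 h 37 °C (10000–0.04 nM final, 6-fold, 8 pt); IFNa 100 ng/mL added, 30 min; lyse, freeze −80 °C; pSTAT5 AlphaLISA, 615 nm; 4PL IC50, bottom fixed 0, slope −1.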
In general terms: Bead proximity is the source of the signal in Alpha formats.

T1 sequence (P29597 589-875 limits assumed): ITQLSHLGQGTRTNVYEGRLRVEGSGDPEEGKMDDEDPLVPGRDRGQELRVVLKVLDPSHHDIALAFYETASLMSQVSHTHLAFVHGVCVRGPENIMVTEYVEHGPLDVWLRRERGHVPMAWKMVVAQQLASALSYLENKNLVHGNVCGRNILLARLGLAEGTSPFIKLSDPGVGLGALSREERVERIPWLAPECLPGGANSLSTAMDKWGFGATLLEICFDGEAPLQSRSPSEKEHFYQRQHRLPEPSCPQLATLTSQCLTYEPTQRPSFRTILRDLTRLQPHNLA

Consider `CNc1ncc(-c2nc3cc(-c4ccn(C)n4)ccc3o2)c2cc(NC(=O)C3CC3)ncc12` [Example 939, N-(5-(5-(1-methyl-1H-pyrazol-3-yl)benzo[d]oxazol-2-yl)-8-(methylamino)-2,7-naphthyridin-3-yl)cyclopropanecarboxamide], for which the Kd on TYK2 JH2 was no more than 100 nM. For the same molecule, the IC50 in test [1] was no more than 500 nM.

As for `CNc1ncc(-c2nc3cc(-c4cnn(C)n4)ccc3o2)c2cc(NC(=O)C3CC3)ncc12` [Example 940, N-(5-(5-(2-methyl-2H-1,2,3-triazol-4-yl)benzo[d]oxazol-2-yl)-8-(methylamino)-2,7-naphthyridin-3-yl)cyclopropanecarboxamide], at TYK2 JH2, the Kd was no more than 100 nM. Also, the IC50 in test [1] is no more than 500 nM.

In the case of `CNc1ncc(-c2nc3cc(OCC(C)(C)F)ccc3o2)c2cc(NC(=O)C3CC3)ncc12` [Example 941, N-[5-[5-(2-fluoro-2-methyl-propoxy)-1,3-benzoxazol-2-yl]-8-(methylamino)-2,7-naphthyridin-3-yl]cyclopropanecarboxamide], the Kd at TYK2 JH2 is no more than 100 nM. Moreover, the IC50 in test [1] is no more than 500 nM.

In the case of `CNc1ncc(-c2nc3cc(N4CCC(F)(F)C4)ccc3o2)c2cc(NC(=O)C3CC3)ncc12` [Example 942, N-(5-(5-(3,3-difluoropyrrolidin-1-yl)benzo[d]oxazol-2-yl)-8-(methylamino)-2,7-naphthyridin-3-yl)cyclopropanecarboxamide], the Kd at TYK2 JH2 is no more than 100 nM. In addition, in test [1], the IC50 is no more than 500 nM.

For `CNc1ncc(-c2nc3cc(N4CCC(F)C4)ccc3o2)c2cc(NC(=O)C3CC3)ncc12` (stereo not shown) [Example 943, N-(5-(5-(3-fluoropyrrolidin-1-yl)benzo[d]oxazol-2-yl)-8-(methylamino)-2,7-naphthyridin-3-yl)cyclopropanecarboxamide], on TYK2 JH2, the Kd was no more than 100 nM. Moreover, in test [1], the IC50 was no more than 500 nM.

For `CNc1ncc(-c2nc3cc([C@]45C[C@H](CO4)C5)ccc3o2)c2cc(NC(=O)C3CC3)ncc12` [Example 946, N-(5-(5-((1s,4s)-2-oxabicyclo[2.1.1]hexan-1-yl)benzo[d]oxazol-2-yl)-8-(methylamino)-2,7-naphthyridin-3-yl)cyclopropanecarboxamide], at TYK2 JH2, the Kd was no more than 100 nM. Further, in test [1], the IC50 was no more than 500 nM.

`CNc1ncc(-c2nc3cc(C4(C)CCCO4)ccc3o2)c2cc(NC(=O)C3CC3)ncc12` (stereo not shown) [Example 947, N-(8-(methylamino)-5-(5-(2-methyltetrahydrofuran-2-yl)benzo[d]oxazol-2-yl)-2,7-naphthyridin-3-yl)cyclopropanecarboxamide]: the Kd on TYK2 JH2 is no more than 100 nM. Further, the IC50 in test [1] is no more than 500 nM.

Turning to `CNc1ncc(-c2nc3cc([C@]4(C)CCCO4)ccc3o2)c2cc(NC(=O)C3CC3)ncc12` [Example 948, (S)—N-(8-(methylamino)-5-(5-(2-methyltetrahydrofuran-2-yl)benzo[d]oxazol-2-yl)-2,7-naphthyridin-3-yl)cyclopropanecarboxamide], at TYK2 JH2, the Kd was no more than 100 nM. Also, the IC50 in test [1] was no more than 500 nM.

In the case of `CNc1ncc(C#Cc2ncccn2)c2cc(NC(=O)C3CC3)ncc12` [Example 950, N-(8-(methylamino)-5-(pyrimidin-2-ylethynyl)-2,7-naphthyridin-3-yl)cyclopropanecarboxamide], at TYK2 JH2, the Kd is no more than 100 nM. The IC50 in test [1] is no more than 500 nM.

Take `CNc1ncc(C#Cc2ccc(N3CCOCC3)cn2)c2cc(NC(=O)C3CC3)ncc12` [Example 951, N-(8-(methylamino)-5-((5-morpholinopyridin-2-yl)ethynyl)-2,7-naphthyridin-3-yl)cyclopropanecarboxamide]: the Kd on TYK2 JH2 is no more than 100 nM. In test [1], the IC50 is no more than 500 nM.

On to `CNc1ncc(C#Cc2ccc(-n3ccnn3)cn2)c2cc(NC(=O)C3CC3)ncc12` [Example 952, N-(5-((5-(1H-1,2,3-triazol-1-yl)pyridin-2-yl)ethynyl)-8-(methylamino)-2,7-naphthyridin-3-yl)cyclopropanecarboxamide], for which, at TYK2 JH2, the Kd was no more than 100 nM. Besides, the IC50 in test [1] was no more than 500 nM.

As for `CNc1ncc(C#Cc2ccc(-n3nccn3)cn2)c2cc(NC(=O)C3CC3)ncc12` [Example 953, N-(5-((5-(2H-1,2,3-triazol-2-yl)pyridin-2-yl)ethynyl)-8-(methylamino)-2,7-naphthyridin-3-yl)cyclopropanecarboxamide], the Kd at TYK2 JH2 is no more than 100 nM. Moreover, the IC50 in test [1] is no more than 500 nM.

Turning to `CNc1ncc(C#Cc2ccc(-n3cccn3)cn2)c2cc(NC(=O)C3CC3)ncc12` [Example 954, N-(5-((5-(1H-pyrazol-1-yl)pyridin-2-yl)ethynyl)-8-(methylamino)-2,7-naphthyridin-3-yl)cyclopropanecarboxamide], at TYK2 JH2, the Kd is no more than 100 nM. The IC50 in test [1] is no more than 500 nM.

For `CNc1ncc(C#Cc2ncccc2C2CC2)c2cc(NC(=O)C3CC3)ncc12` [Example 955, N-(5-((3-cyclopropylpyridin-2-yl)ethynyl)-8-(methylamino)-2,7-naphthyridin-3-yl)cyclopropanecarboxamide], the Kd on TYK2 JH2 was no more than 100 nM. For the same molecule, the IC50 in test [1] is no more than 500 nM.

Take `CNc1ncc(C#Cc2ccc3c(c2)CCNC3)c2cc(NC(=O)C3CC3)ncc12` [Example 956, N-(8-(methylamino)-5-((1,2,3,4-tetrahydroisoquinolin-6-yl)ethynyl)-2,7-naphthyridin-3-yl)cyclopropanecarboxamide]: the Kd at TYK2 JH2 was no more than 100 nM. Further, the IC50 in test [1] is no more than 500 nM.

For the molecule `CNc1ncc(C#Cc2ccc(-c3cnn(C)n3)cc2)c2cc(NC(=O)C3CC3)ncc12` [Example 957, N-(5-((4-(2-methyl-2H-1,2,3-triazol-4-yl)phenyl)ethynyl)-8-(methylamino)-2,7-naphthyridin-3-yl)cyclopropanecarboxamide], the Kd at TYK2 JH2 is no more than 100 nM. In test [1], the IC50 was no more than 500 nM.

On to `CNc1ncc(C#CC23CC(OC)(C2)C3)c2cc(NC(=O)C3CC3)ncc12` [Example 958, N-(5-((3-methoxybicyclo[1.1.1]pentan-1-yl)ethynyl)-8-(methylamino)-2,7-naphthyridin-3-yl)cyclopropanecarboxamide], for which the Kd on TYK2 JH2 is no more than 100 nM. Moreover, the IC50 in test [1] was no more than 500 nM.

In the case of `CNc1ncc(C#Cc2sc(C(C)=O)cc2C)c2cc(NC(=O)C3CC3)ncc12` [Example 959, N-(5-((5-acetyl-3-methylthiophen-2-yl)ethynyl)-8-(methylamino)-2,7-naphthyridin-3-yl)cyclopropanecarboxamide], on TYK2 JH2, the Kd is no more than 100 nM. Also, the IC50 in test [1] is no more than 500 nM.

With `CNc1ncc(C#Cc2sccc2CO)c2cc(NC(=O)C3CC3)ncc12` [Example 960, N-(5-((3-(hydroxymethyl)thiophen-2-yl)ethynyl)-8-(methylamino)-2,7-naphthyridin-3-yl)cyclopropanecarboxamide], the Kd on TYK2 JH2 was no more than 100 nM. The IC50 in test [1] is no more than 500 nM.

As to `CCc1nc(C)c(C#Cc2cnc(NC)c3cnc(NC(=O)C4CC4)cc23)s1` [Example 961, N-(5-((2-ethyl-4-methylthiazol-5-yl)ethynyl)-8-(methylamino)-2,7-naphthyridin-3-yl)cyclopropanecarboxamide], the Kd at TYK2 JH2 was no more than 100 nM. In test [1], the IC50 is no more than 500 nM.

Take `CNc1ncc(C#Cc2ccc(-n3c(=O)ccn3C)cc2)c2cc(NC(=O)C3CC3)ncc12` [Example 962, N-[8-(methylamino)-5-[2-[4-(2-methyl-5-oxo-pyrazol-1-yl)phenyl]ethynyl]-2,7-naphthyridin-3-yl]cyclopropanecarboxamide]: the Kd at TYK2 JH2 is no more than 100 nM. The IC50 in test [1] is no more than 500 nM.

With `CNc1ncc(C#Cc2ncc(OC)cc2CF)c2cc(NC(=O)C3CC3)ncc12` [Example 963, N-[5-[2-[3-(fluoromethyl)-5-methoxy-2-pyridyl]ethynyl]-8-(methylamino)-2,7-naphthyridin-3-yl]cyclopropanecarboxamide], the Kd at TYK2 JH2 was no more than 100 nM. Further, the IC50 in test [1] was no more than 500 nM.

Take `CNc1ncc(C#Cc2ccc(COC)cn2)c2cc(NC(=O)C3CC3)ncc12` [Example 964, N-[5-[2-[5-(methoxymethyl)-2-pyridyl]ethynyl]-8-(methylamino)-2,7-naphthyridin-3-yl]cyclopropanecarboxamide]: the Kd on TYK2 JH2 is no more than 100 nM. The IC50 in test [1] was no more than 500 nM.

For `CNc1ncc(C#Cc2ccc(OC)cc2CO)c2cc(NC(=O)C3CC3)ncc12` [Example 965, N-[5-[2-[2-(hydroxymethyl)-4-methoxy-phenyl]ethynyl]-8-(methylamino)-2,7-naphthyridin-3-yl]cyclopropanecarboxamide], on TYK2 JH2, the Kd is no more than 100 nM. The IC50 in test [1] was no more than 500 nM.

Take `CNc1ncc(C#Cc2ccc(Oc3nccn3C)cc2)c2cc(NC(=O)C3CC3)ncc12` [Example 966, N-(5-((4-((1-methyl-1H-imidazol-2-yl)oxy)phenyl)ethynyl)-8-(methylamino)-2,7-naphthyridin-3-yl)cyclopropanecarboxamide]: on TYK2 JH2, the Kd was no more than 100 nM. Moreover, the IC50 in test [1] is no more than 500 nM.

Take `CNc1ncc(C#Cc2ncc(OC)cc2CO)c2cc(NC(=O)C3CC3)ncc12` [Example 967, N-[5-[2-[3-(hydroxymethyl)-5-methoxy-2-pyridyl]ethynyl]-8-(methylamino)-2,7-naphthyridin-3-yl]cyclopropanecarboxamide]: the Kd on TYK2 JH2 is no more than 100 nM. Further, in test [1], the IC50 was no more than 500 nM.
